The source of these data is US20260035382A1, “COMPOUNDS AS SUMO ACTIVATING ENZYME INHIBITORS” (WIGEN BIOMEDICINE TECHNOLOGY (SHANGHAI) CO., LTD., priority 2022, published 2026).

pIC50: −log10 of the molar value. Like-named read-outs stand apart in the source and are kept apart here.

For the assay, the target named is SAE (Homo sapiens (Human), UniProt Q9UBT2). Briefly: In vitro inhibitory activity assay against SAE (SUMO-2/3 immunofluorescence in HCT116 cells). Type of assay: cell-based. As to conditions: 6 h incubation, read-out: SUMO IF IC50. The essentials:
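HCT116 cells treated with compounds for 6 h at 37 °C, then fixed, permeabilized and immunostained for SUMO-2/3 with FITC secondary detection. Fluorescence compared with DMSO control to give inhibition rate and IC50.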

Sequence of SAE (Q9UBT2 whole entry): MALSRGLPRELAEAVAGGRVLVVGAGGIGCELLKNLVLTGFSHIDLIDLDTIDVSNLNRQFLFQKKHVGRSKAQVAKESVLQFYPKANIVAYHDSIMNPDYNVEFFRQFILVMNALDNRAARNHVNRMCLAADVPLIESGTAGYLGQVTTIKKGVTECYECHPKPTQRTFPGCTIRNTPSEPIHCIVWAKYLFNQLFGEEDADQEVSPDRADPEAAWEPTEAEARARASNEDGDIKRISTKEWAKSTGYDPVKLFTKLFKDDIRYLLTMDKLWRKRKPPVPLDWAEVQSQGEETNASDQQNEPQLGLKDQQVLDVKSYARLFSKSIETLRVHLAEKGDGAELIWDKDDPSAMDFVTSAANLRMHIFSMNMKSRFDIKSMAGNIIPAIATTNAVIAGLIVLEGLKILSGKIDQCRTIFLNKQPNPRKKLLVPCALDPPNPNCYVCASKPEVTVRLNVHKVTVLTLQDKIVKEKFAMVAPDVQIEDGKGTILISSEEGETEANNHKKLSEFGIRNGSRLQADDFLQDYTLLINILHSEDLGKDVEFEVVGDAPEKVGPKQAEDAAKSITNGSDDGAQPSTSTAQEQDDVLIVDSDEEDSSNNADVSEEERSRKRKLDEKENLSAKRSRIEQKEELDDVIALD
Sequence of SAE (Q9UBE0 whole entry partner): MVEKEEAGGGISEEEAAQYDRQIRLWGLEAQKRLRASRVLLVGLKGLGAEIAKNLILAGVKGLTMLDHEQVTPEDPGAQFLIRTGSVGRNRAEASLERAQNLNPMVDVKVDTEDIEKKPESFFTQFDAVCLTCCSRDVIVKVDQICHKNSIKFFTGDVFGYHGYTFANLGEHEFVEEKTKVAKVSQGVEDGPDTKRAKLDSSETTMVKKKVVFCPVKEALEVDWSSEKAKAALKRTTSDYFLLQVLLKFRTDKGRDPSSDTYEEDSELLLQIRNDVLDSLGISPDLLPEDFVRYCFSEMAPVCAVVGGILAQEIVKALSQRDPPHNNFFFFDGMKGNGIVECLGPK

With `CC(C)N1Cc2sc(C(=O)c3cncnc3N[C@@H]3C[C@H](COS(N)(=O)=O)[C@@H](O)C3)cc2[C@@]2(C1)NCCc1ccc(Cl)cc12` [Compound 185], the pIC50 (numeric values) was < 6.00.

Turning to `CC(C)N1Cc2sc(C(=O)c3cncnc3N[C@@H]3C[C@H](COS(N)(=O)=O)[C@@H](O)C3)cc2[C@]2(C1)NCCc1ccc(Cl)cc12` [Compound 186], the negative logarithm of the IC50 (pIC50) (numeric values) was 7.79.

On to `NS(=O)(=O)OC[C@H]1C[C@@H](Nc2ncncc2C(=O)c2cc3c(s2)CN(CC(F)(F)F)CC32NCCc3ccc(Cl)cc32)C[C@@H]1O` (stereo partly drawn) [Compound 187], for which, for the setting “class symbols”, the pIC50 is ≥ 7.30.

Turning to `NS(=O)(=O)OC[C@H]1C[C@@H](Nc2ncncc2C(=O)c2cc3c(s2)CN(CC(F)(F)F)C[C@@]32NCCc3ccc(Cl)cc32)C[C@@H]1O` [Compound 188], the pIC50 (numeric values) is < 6.00.

Regarding `NS(=O)(=O)OC[C@H]1C[C@@H](Nc2ncncc2C(=O)c2cc3c(s2)CN(CC(F)(F)F)C[C@]32NCCc3ccc(Cl)cc32)C[C@@H]1O` [Compound 189], the negative-log IC50 (pIC50) (numeric values) is 7.61.

Turning to `C=CCN1Cc2sc(C(=O)c3cncnc3N[C@@H]3C[C@H](COS(N)(=O)=O)[C@@H](O)C3)cc2C2(C1)NCCc1ccc(Cl)cc12` (stereo partly drawn) [Compound 190], the negative-log IC50 (pIC50) (class symbols) is ≥ 7.30.

On to `C=CCN1Cc2sc(C(=O)c3cncnc3N[C@@H]3C[C@H](COS(N)(=O)=O)[C@@H](O)C3)cc2[C@@]2(C1)NCCc1ccc(Cl)cc12` [Compound 191], for which the pIC50 (numeric values) was < 6.00.

In the case of `C=CCN1Cc2sc(C(=O)c3cncnc3N[C@@H]3C[C@H](COS(N)(=O)=O)[C@@H](O)C3)cc2[C@]2(C1)NCCc1ccc(Cl)cc12` [Compound 192], the pIC50 (numeric values) was 7.60.

`C#CCN1Cc2sc(C(=O)c3cncnc3N[C@@H]3C[C@H](COS(N)(=O)=O)[C@@H](O)C3)cc2C2(C1)NCCc1ccc(Cl)cc12` (stereo partly drawn) [Compound 193]: the pIC50 (class symbols) is ≥ 7.30.

As to `C#CCN1Cc2sc(C(=O)c3cncnc3N[C@@H]3C[C@H](COS(N)(=O)=O)[C@@H](O)C3)cc2[C@@]2(C1)NCCc1ccc(Cl)cc12` [Compound 194], the negative-log IC50 (pIC50) (numeric values) was < 6.00.

In the case of `C#CCN1Cc2sc(C(=O)c3cncnc3N[C@@H]3C[C@H](COS(N)(=O)=O)[C@@H](O)C3)cc2[C@]2(C1)NCCc1ccc(Cl)cc12` [Compound 195], where the note is “numeric values”, the pIC50 is 7.67.

On to `[2H]C1([2H])Cc2ccc(Cl)cc2C2(CCCc3sc(C(=O)c4cncnc4N[C@@H]4C[C@H](COS(N)(=O)=O)[C@@H](O)C4)cc32)N1` (stereo partly drawn) [Compound 196], for which the negative-log IC50 (pIC50) (class symbols) was 6.70 to 7.30.

For `[2H]C1([2H])Cc2ccc(Cl)cc2[C@]2(CCCc3sc(C(=O)c4cncnc4N[C@@H]4C[C@H](COS(N)(=O)=O)[C@@H](O)C4)cc32)N1` [Compound 197], under “numeric values”, the negative logarithm of the IC50 (pIC50) was < 6.00.

`[2H]C1([2H])Cc2ccc(Cl)cc2[C@@]2(CCCc3sc(C(=O)c4cncnc4N[C@@H]4C[C@H](COS(N)(=O)=O)[C@@H](O)C4)cc32)N1` [Compound 198]: the pIC50 (numeric values) was 7.54.

For `[2H]C1([2H])CNC2(CCCc3sc(C(=O)c4cncnc4N[C@@H]4C[C@H](COS(N)(=O)=O)[C@@H](O)C4)cc32)c2cc(Cl)ccc21` (stereo partly drawn) [Compound 199], the negative logarithm of the IC50 (pIC50) (class symbols) was ≥ 7.30.

For the compound `[2H]C1([2H])CN[C@@]2(CCCc3sc(C(=O)c4cncnc4N[C@@H]4C[C@H](COS(N)(=O)=O)[C@@H](O)C4)cc32)c2cc(Cl)ccc21` [Compound 200], the pIC50 (numeric values) is < 6.00.

Turning to `[2H]C1([2H])CN[C@]2(CCCc3sc(C(=O)c4cncnc4N[C@@H]4C[C@H](COS(N)(=O)=O)[C@@H](O)C4)cc32)c2cc(Cl)ccc21` [Compound 201], the pIC50 (numeric values) was 7.58.

Take `Cc1ccc2c(c1)[C@@]1(CCCc3sc(C(=O)c4cncnc4N[C@@H]4C[C@H](COS(N)(=O)=O)[C@@H](O)C4)cc31)NCC2` [Compound 202]: where the note is “class symbols”, the negative-log IC50 (pIC50) is 6.70 to 7.30.

In the case of `NS(=O)(=O)OC[C@H]1C[C@@H](Nc2ncncc2C(=O)c2cc3c(s2)CCC[C@]32NCCc3ccc(C4CC4)cc32)C[C@@H]1O` [Compound 203], the negative logarithm of the IC50 (pIC50) (class symbols) is 6.70 to 7.30.

As to `C#Cc1ccc2c(c1)[C@@]1(CCCc3sc(C(=O)c4cncnc4N[C@@H]4C[C@H](COS(N)(=O)=O)[C@@H](O)C4)cc31)NCC2` [Compound 204], under “class symbols”, the negative logarithm of the IC50 (pIC50) was 6.70 to 7.30.

Consider `NS(=O)(=O)OC[C@H]1C[C@@H](Nc2ncncc2C(=O)c2cc3c(s2)CCC[C@]32NCCc3ccc(C(F)(F)F)cc32)C[C@@H]1O` [Compound 205], for which the pIC50 (class symbols) is 6.70 to 7.30.

With `NS(=O)(=O)OC[C@H]1C[C@@H](Nc2ncncc2C(=O)c2cc3c(s2)CCC[C@]32NCCc3cc(F)c(F)cc32)C[C@@H]1O` [Compound 206], the negative logarithm of the IC50 (pIC50) (class symbols) was ≥ 7.30.

Regarding `NS(=O)(=O)OC[C@H]1C[C@@H](Nc2ncncc2C(=O)c2cc3c(s2)CCC[C@]32NCCc3cc(F)c(Cl)cc32)C[C@@H]1O` [Compound 207], the negative-log IC50 (pIC50) (class symbols) is ≥ 7.30.

As for `NS(=O)(=O)OC[C@H]1C[C@@H](Nc2ncncc2C(=O)c2cc3c(s2)CCC[C@]32NCCc3cc(Cl)c(Cl)cc32)C[C@@H]1O` [Compound 208], the pIC50 (class symbols) is ≥ 7.30.

As for `N#Cc1cc2c(cc1Cl)[C@@]1(CCCc3sc(C(=O)c4cncnc4N[C@@H]4C[C@H](COS(N)(=O)=O)[C@@H](O)C4)cc31)NCC2` [Compound 210], the pIC50 (class symbols) is ≥ 7.30.

As to `COc1cc2c(cc1Cl)[C@@]1(CCCc3sc(C(=O)c4cncnc4N[C@@H]4C[C@H](COS(N)(=O)=O)[C@@H](O)C4)cc31)NCC2` [Compound 211], the pIC50 (class symbols) was 6.70 to 7.30.

As for `NS(=O)(=O)OC[C@H]1C[C@@H](Nc2ncncc2C(=O)c2cc3c(s2)CCC[C@]32NCCc3cc(F)c(Cl)c(F)c32)C[C@@H]1O` [Compound 212], the pIC50 (class symbols) is ≥ 7.30.

Consider `NS(=O)(=O)OC[C@H]1C[C@@H](Nc2ncncc2C(=O)c2cc3c(s2)CCC[C@]32NCCc3cc(Cl)c(F)cc32)C[C@@H]1O` [Compound 213], for which the pIC50 (class symbols) was ≥ 7.30.

For the compound `NS(=O)(=O)OC[C@H]1C[C@@H](Nc2ncncc2C(=O)c2cc3c(s2)CCC[C@]32NCCc3ccncc32)C[C@@H]1O` [Compound 214], the pIC50 (class symbols) was 6.70 to 7.30.

With `NS(=O)(=O)OC[C@H]1C[C@@H](Nc2ncncc2C(=O)c2cc3c(s2)CCC[C@]32NCCc3cc(Cl)ncc32)C[C@@H]1O` [Compound 215], the pIC50 (class symbols) is 6.70 to 7.30.

`NS(=O)(=O)OC[C@H]1C[C@@H](Nc2ncncc2C(=O)c2cc3c(s2)C=CC[C@]32NCCc3ccc(Cl)cc32)C[C@@H]1O` [Compound 216]: the negative logarithm of the IC50 (pIC50) (class symbols) is ≥ 7.30.

Turning to `NS(=O)(=O)OC[C@H]1C[C@@H](Nc2ncncc2C(=O)c2cc3c(s2)CC=C[C@]32NCCc3ccc(Cl)cc32)C[C@@H]1O` [Compound 217], for the setting “class symbols”, the negative-log IC50 (pIC50) is ≥ 7.30.

With `NS(=O)(=O)OC[C@H]1C[C@@H](Nc2ncncc2C(=O)c2cc3c(s2)OCC[C@]32NCCc3ccc(Cl)cc32)C[C@@H]1O` [Compound 218], under “class symbols”, the pIC50 was 6.70 to 7.30.

`NS(=O)(=O)OC[C@H]1C[C@@H](Nc2ncncc2C(=O)c2cc3c(s2)CCC[C@]32NCC3(CC3)c3ccc(Cl)cc32)C[C@@H]1O` [Compound 219]: for the setting “class symbols”, the pIC50 was ≥ 7.30.

Take `NS(=O)(=O)OC[C@H]1C[C@@H](Nc2ncncc2C(=O)c2cc3c(s2)CCC[C@]32NC3(CC3)Cc3ccc(Cl)cc32)C[C@@H]1O` [Compound 220]: under “class symbols”, the pIC50 is 6.70 to 7.30.

Turning to `NS(=O)(=O)OC[C@H]1C[C@@H](Nc2ncncc2C(=O)c2cc3c(s2)CCC[C@@]32OCCc3ccc(Cl)cc32)C[C@@H]1O` [Compound 221], the pIC50 (class symbols) is < 6.70.

As for `NS(=O)(=O)OC[C@H]1C[C@@H](Nc2ncncc2C(=O)c2cc3c(s2)CCC[C@]32OCCc3ccc(Cl)cc32)C[C@@H]1O` [Compound 222], the negative-log IC50 (pIC50) (class symbols) is ≥ 7.30.

With `Cc1ccc2c(c1)[C@@]1(CCc3sc(C(=O)c4cncnc4N[C@@H]4C[C@H](COS(N)(=O)=O)[C@@H](O)C4)cc31)NCC2` [Compound 223], the negative-log IC50 (pIC50) (class symbols) was 6.70 to 7.30.

In the case of `NS(=O)(=O)OC[C@H]1C[C@@H](Nc2ncncc2C(=O)c2cc3c(s2)CC[C@]32NCCc3ccc(C4CC4)cc32)C[C@@H]1O` [Compound 224], where the note is “class symbols”, the negative logarithm of the IC50 (pIC50) was 6.70 to 7.30.

With `COc1ccc2c(c1)[C@@]1(CCc3sc(C(=O)c4cncnc4N[C@@H]4C[C@H](COS(N)(=O)=O)[C@@H](O)C4)cc31)NCC2` [Compound 225], the pIC50 (class symbols) was 6.70 to 7.30.

For `NS(=O)(=O)OC[C@H]1C[C@@H](Nc2ncncc2C(=O)c2cc3c(s2)CC[C@]32NCCc3ccc(C(F)(F)F)cc32)C[C@@H]1O` [Compound 226], the pIC50 (class symbols) is 6.70 to 7.30.

Turning to `NS(=O)(=O)OC[C@H]1C[C@@H](Nc2ncncc2C(=O)c2cc3c(s2)CC[C@]32NCCc3cc(F)c(F)cc32)C[C@@H]1O` [Compound 227], the pIC50 (class symbols) was ≥ 7.30.

In the case of `NS(=O)(=O)OC[C@H]1C[C@@H](Nc2ncncc2C(=O)c2cc3c(s2)CC[C@]32NCCc3cc(F)c(Cl)cc32)C[C@@H]1O` [Compound 228], for the setting “class symbols”, the pIC50 was ≥ 7.30.

`NS(=O)(=O)OC[C@H]1C[C@@H](Nc2ncncc2C(=O)c2cc3c(s2)CC[C@]32NCCc3cc(Cl)c(Cl)cc32)C[C@@H]1O` [Compound 229]: the negative-log IC50 (pIC50) (class symbols) was ≥ 7.30.

With `Cc1cc2c(cc1Cl)[C@@]1(CCc3sc(C(=O)c4cncnc4N[C@@H]4C[C@H](COS(N)(=O)=O)[C@@H](O)C4)cc31)NCC2` [Compound 230], the pIC50 (class symbols) is ≥ 7.30.

Regarding `N#Cc1cc2c(cc1Cl)[C@@]1(CCc3sc(C(=O)c4cncnc4N[C@@H]4C[C@H](COS(N)(=O)=O)[C@@H](O)C4)cc31)NCC2` [Compound 231], the negative logarithm of the IC50 (pIC50) (class symbols) was ≥ 7.30.

With `COc1cc2c(cc1Cl)[C@@]1(CCc3sc(C(=O)c4cncnc4N[C@@H]4C[C@H](COS(N)(=O)=O)[C@@H](O)C4)cc31)NCC2` [Compound 232], the negative-log IC50 (pIC50) (class symbols) was 6.70 to 7.30.

As to `NS(=O)(=O)OC[C@H]1C[C@@H](Nc2ncncc2C(=O)c2cc3c(s2)CC[C@]32NCCc3cc(F)c(Cl)c(F)c32)C[C@@H]1O` [Compound 233], the negative-log IC50 (pIC50) (class symbols) is ≥ 7.30.

Take `NS(=O)(=O)OC[C@H]1C[C@@H](Nc2ncncc2C(=O)c2cc3c(s2)CC[C@]32NCCc3cc(Cl)c(F)cc32)C[C@@H]1O` [Compound 234]: the pIC50 (class symbols) was ≥ 7.30.

For the compound `NS(=O)(=O)OC[C@H]1C[C@@H](Nc2ncncc2C(=O)c2cc3c(s2)CC[C@]32NCCc3ccncc32)C[C@@H]1O` [Compound 235], the negative logarithm of the IC50 (pIC50) (class symbols) is 6.70 to 7.30.

Take `NS(=O)(=O)OC[C@H]1C[C@@H](Nc2ncncc2C(=O)c2cc3c(s2)CC[C@]32NCCc3cc(Cl)ncc32)C[C@@H]1O` [Compound 236]: for the setting “class symbols”, the negative-log IC50 (pIC50) is 6.70 to 7.30.

As usually defined, the pIC50 is −log10 of the IC50, conventionally taken in molar units.
